Data on one compound can be found in US20060002911A1, “Association between a ppar ligand and an antioxidant agent and use thereof for treating obesity” (priority 2002, published 2006).

For this assay the following is noted: ob/ob mice, intraperitoneal route once a day for 14 days.

Method: Male C57 Black 6 ob/ob mice from 8 to 12 weeks old were used. […] After being weighed, the mice were treated with rosiglitazone (antidiabetic agent) on its own or in association with coenzyme Q10. […] In addition, the solution was pre-heated before injection. The mice were weighed every day and the weight obtained after 14 days of treatment was recorded.

With `CN(CCOc1ccc(CC2SC(=O)NC2=O)cc1)c1ccccn1` (centres unmarked) [rosiglitazone], the “increase in the weight of the mice” value is on record as “greater than or equal to 5 grams”. For the same compound, the “increase in weight relative to initial weight” value (more than initial weight) was “about 10%”.
